Test [1] addresses T1, SARS-CoV-2 PLpro (nsp3 1564–1878) (Severe acute respiratory syndrome coronavirus 2, UniProt P0DTD1). As to the kind of experiment: biochemical. More on the design: FRET-quenched peptide (Pro3) cleavage by PLpro, 10 min pre-incubation, slope over 20 min, normalised to no-compound control. The conditions noted are these: high concentration screen, read-out: % of control remaining.

The target in test [2] is T1, SARS-CoV-2 PLpro (nsp3 1564–1878). As to the kind of experiment: biochemical. The conditions noted are these: low concentration screen, read-out: % of control remaining. Also noted: FRET-quenched peptide (Pro3) cleavage by PLpro, 10 min pre-incubation, slope over 20 min, normalised to no-compound control.

Each structure is given as a SMILES string. Where a name gives a salt, the structure may show the parent alone. Read-outs that look alike come from different tables or passages of the source.

With `O=C(O)c1cc([N+](=O)[O-])ccc1NCCCc1ccccc1` [5-Nitro-2-(3-phenylpropylamino)benzoic acid], the remaining activity at 3.75 µM in test [1] (Well no.=1047) was 99.3%. Further, in test [2] (Well no.=1047), the remaining activity at 1.25 µM came to 99.5%.

For `CCCCCCCC/C=C\CCCCCCCC(=O)O` [9(Z)-Octadecenoic acid], the remaining activity at 3.75 µM in test [1] (Well no.=4590) is 98.1%. The remaining activity at 1.25 µM in test [2] (Well no.=4590) turned out to be 101%.

Consider `O=C(NCCCCCCNC(=O)ON=C1CCCCC1)ON=C1CCCCC1` [RHC 80267], for which the remaining activity at 3.75 µM in test [1] (Well no.=5818) is 99.1%. Besides, in test [2] (Well no.=5818), the remaining activity at 1.25 µM turned out to be 96.6%.

As to `C=CC(=O)c1ccc2ccccc2c1` [ZM 449829 - 1-(2-Naphthalenyl)-2-propen-1-one], the remaining activity at 3.75 µM in test [1] (Well no.=2388) was found to be 106%. In addition, the remaining activity at 1.25 µM in test [2] (Well no.=2388) amounted to 105%.

As for `CC1=C(C)C(=O)C(CCCCC#CCCCC#CCO)=C(C)C1=O` [Docebenone], the remaining activity at 3.75 µM in test [1] (Well no.=1917) turned out to be 90.2%. For the same compound, the remaining activity at 1.25 µM in test [2] (Well no.=1917) is 90.8%.

In the case of `N[C@@H](Cc1ccc(F)cc1)C(=O)O` [p-Fluoro-L-phenylalanine], the remaining activity at 3.75 µM in test [1] (Well no.=707) stood at 87%. Further, in test [2] (Well no.=707), the remaining activity at 1.25 µM is 95.3%.

Take `CCCCCC(=O)/C=C/[C@H]1[C@H](O)CC(=O)[C@@H]1C/C=C\CCCC(=O)O` [15-keto-prostaglandin E2]: in test [1] (Well no.=4485), the remaining activity at 3.75 µM was 96.6%. The remaining activity at 1.25 µM in test [2] (Well no.=4485) amounted to 89%.

`CCCCCCCCCCCCCC(=O)O` [Tetradecanoic acid]: in test [1] (Well no.=4266), the remaining activity at 3.75 µM amounted to 95.8%. Also, the remaining activity at 1.25 µM in test [2] (Well no.=4266) is 102%.

As for `N=c1c[n+](N2CCOCC2)[n-]o1` [3-Morpholinosydnonimine hydrochloride], in test [1] (Well no.=1041), the remaining activity at 3.75 µM was 103%. Also, the remaining activity at 1.25 µM in test [2] (Well no.=1041) is 102%.

As for `CN(Cc1ccc(C(C)(C)C)cc1)Cc1cccc2ccccc12` [Butenafine HCl], the remaining activity at 3.75 µM in test [1] (Well no.=5371) was 97.8%. For the same compound, the remaining activity at 1.25 µM in test [2] (Well no.=5371) amounted to 98.1%.

`CCCCCCCN[C@H]1CCC[C@@H]1CCCCCCC(=O)O` (racemic): the remaining activity at 3.75 µM in test [1] (Well no.=4531) is 98%. Besides, in test [2] (Well no.=4531), the remaining activity at 1.25 µM was 95.3%.

Consider `CCc1nn(CCCN2CCN(c3cccc(Cl)c3)CC2)c(=O)n1CCOc1ccccc1` [Nefazodone (hydrochloride)], for which the remaining activity at 3.75 µM in test [1] (Well no.=6765) stood at 92.8%. For the same compound, the remaining activity at 1.25 µM in test [2] (Well no.=6765) amounted to 97.2%.

`O=C1CCC[C@@H]2[C@H]3CCCN4CCC[C@@H](CN12)[C@@H]34` [Matrine]: the results for the remaining activity at 3.75 µM in test [1] (Well no.=3661) and in test [1] (Well no.=8341) were 103% and 94.7%, respectively. The values for the remaining activity at 1.25 µM in test [2] (Well no.=3661) and in test [2] (Well no.=8341) were 101% and 100%, respectively.

`CN(C)[C@@H]1C(O)=C(C(N)=O)C(=O)[C@@]2(O)C(O)=C3C(=O)c4c(O)ccc(Cl)c4[C@@H](O)[C@H]3C[C@@H]12` [Demeclocycline hydrochloride]: the remaining activity at 3.75 µM in test [1] (Well no.=484) was found to be 96.9%. For the same compound, in test [2] (Well no.=484), the remaining activity at 1.25 µM came out at 99.1%.

`Nc1ncnc2c1ncn2[C@@H]1O[C@H](CO)[C@@H](O)[C@H]1O` [Adenosine]: the remaining activity at 3.75 µM came to 95.6% in test [1] (Well no.=200), 102% in test [1] (Well no.=6301) and 88.7% in test [1] (Well no.=8048). Further, the results for the remaining activity at 1.25 µM in test [2] (Well no.=200), in test [2] (Well no.=6301) and in test [2] (Well no.=8048) were 94%, 105% and 87.9%, respectively.

Turning to `Cc1cc(Nc2cc(CN3CCOCC3)c3nc(C)c(Cc4ccc(Cl)cc4F)n3n2)n[nH]1` [LY2784544], the remaining activity at 3.75 µM in test [1] (Well no.=4806) was determined as 101%. For the same compound, the remaining activity at 1.25 µM in test [2] (Well no.=4806) worked out at 98.3%.

For `CC(C)=CCc1cc2c(cc1O)oc(=O)c1c3ccc(O)cc3oc21` [3,9-dihydroxy-2-(3-methyl-2-butenyl)-6H-[1]benzofuro[3,2-c]chromen-6-one], the remaining activity at 3.75 µM in test [1] (Well no.=6091) stood at 87.9%. The remaining activity at 1.25 µM in test [2] (Well no.=6091) amounted to 95.4%.

With `CC(=O)Oc1cc(C(C)C)c(OCCN(C)C)cc1C` [Moxisylyte hydrochloride], the remaining activity at 3.75 µM in test [1] (Well no.=976) was determined as 101%. The remaining activity at 1.25 µM in test [2] (Well no.=976) turned out to be 103%.

On to `COc1cc(C(=O)OCCCN2CCCN(CCCOC(=O)c3cc(OC)c(OC)c(OC)c3)CC2)cc(OC)c1OC` [Dilazep hydrochloride], for which the remaining activity at 3.75 µM in test [1] (Well no.=595) is 106%. Besides, the remaining activity at 1.25 µM in test [2] (Well no.=595) was determined as 103%.

As to `COC(=O)N/N=C/c1c[n+]([O-])c2ccccc2[n+]1[O-]` [Carbadox], in test [1] (Well no.=2211), the remaining activity at 3.75 µM came out at 93.2%. For the same compound, the remaining activity at 1.25 µM in test [2] (Well no.=2211) was 98.3%.

`COc1cc(OCc2cccc(-c3ccccc3)c2C)cc(OC)c1CN1CCCC[C@H]1C(=O)O` [BMS-1]: the remaining activity at 3.75 µM in test [1] (Well no.=7780) amounted to 96.2%; in test [1] (Well no.=8163), 100%. Besides, the remaining activity at 1.25 µM was found to be 98.8% in test [2] (Well no.=7780) and 105% in test [2] (Well no.=8163).

With `CN1c2ccccc2C(=O)N2CCc3c([nH]c4ccccc34)C21` (stereo in doubt) [Evodiamine], the remaining activity at 3.75 µM in test [1] (Well no.=3809) was found to be 98.5%. Moreover, in test [2] (Well no.=3809), the remaining activity at 1.25 µM is 95.1%.

Consider `C#C[C@]1(OC(C)=O)CC[C@H]2[C@@H]3CCC4=C[C@@H](OC(C)=O)CC[C@@H]4[C@H]3CC[C@@]21C` [Ethynodiol diacetate], for which, in test [1] (Well no.=5373), the remaining activity at 3.75 µM was 92.2%. Moreover, the remaining activity at 1.25 µM in test [2] (Well no.=5373) is 92.3%.

Take `Nc1ccc(S(=O)(=O)NC(=O)c2ccccc2)cc1` [Sulfabenzamide]: the remaining activity at 3.75 µM in test [1] (Well no.=7306) worked out at 102%. Also, the remaining activity at 1.25 µM in test [2] (Well no.=7306) worked out at 103%.

Turning to `COc1ccc(CC[C@H]2CCC[C@@H](CCc3ccc(OC)cc3)N2C[C@@H](O)CO)cc1` [(R)-3-((2R,6S)-2,6-bis(4-methoxyphenethyl)piperidin-1-yl)propane-1,2-diol hydrochloride], the remaining activity at 3.75 µM in test [1] (Well no.=5614) is 102%. The remaining activity at 1.25 µM in test [2] (Well no.=5614) amounted to 101%.

With `CN[C@@H](C)C(=O)N[C@H](C(=O)N1CCC[C@H]1C(=O)N[C@H]1c2ccccc2C[C@H]1OCC#CC#CCO[C@@H]1Cc2ccccc2[C@@H]1NC(=O)[C@@H]1CCCN1C(=O)[C@@H](NC(=O)[C@H](C)NC)C1CCCCC1)C1CCCCC1` [AZD5582], the remaining activity at 3.75 µM in test [1] (Well no.=6358) was determined as 101%; in test [1] (Well no.=8416), 93.5%. The results for the remaining activity at 1.25 µM in test [2] (Well no.=6358) and in test [2] (Well no.=8416) were 102% and 98.4%, respectively.

For the compound `COC[C@@H](c1ccc(C(F)(F)F)cc1)N1CCN(C2(C)CCN(C(=O)c3c(C)ncnc3C)CC2)C[C@@H]1C` [Vicriviroc (maleate)], in test [1] (Well no.=8655), the remaining activity at 3.75 µM was 103%. For the same compound, in test [2] (Well no.=8655), the remaining activity at 1.25 µM came out at 106%.

With `O=c1cc(N2CCOCC2)oc2c1ccc1ccccc12` [NU 7026 - 2-(4-Morpholinyl)-4H-naphthol[1,2-b]pyran-4-one], the remaining activity at 3.75 µM in test [1] (Well no.=2630) is 92.6%. In addition, the remaining activity at 1.25 µM in test [2] (Well no.=2630) turned out to be 92.2%.
